Each molecule was assayed against T1, PAR2 (Homo sapiens, UniProt P55085) (assay: PAR2 agonist inhibition (antagonism) by intracellular Ca2+ release in HT29 cells). Conditions: not given.
T1 sequence (P55085 26-397): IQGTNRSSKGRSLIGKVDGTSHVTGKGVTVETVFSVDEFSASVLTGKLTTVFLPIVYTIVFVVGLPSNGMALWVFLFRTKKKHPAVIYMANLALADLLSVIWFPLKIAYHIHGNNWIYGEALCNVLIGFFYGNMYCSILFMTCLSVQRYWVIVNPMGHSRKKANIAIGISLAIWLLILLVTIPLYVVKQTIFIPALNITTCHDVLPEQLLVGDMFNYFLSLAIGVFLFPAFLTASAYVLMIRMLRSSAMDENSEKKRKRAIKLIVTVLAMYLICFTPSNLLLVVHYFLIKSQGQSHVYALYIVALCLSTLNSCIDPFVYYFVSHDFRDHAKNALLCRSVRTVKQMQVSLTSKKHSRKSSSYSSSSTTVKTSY
Type: cell-based
Set-up: Agonists of Ca^2+ release in HT29 cells; endogenous in cells; host or cells: HT29 (human cell line, cultured per ATCC information)
Excerpt: The ability of the compounds of the present invention to activate PAR2 may be assessed via calcium mobilisation assays. It is appreciated that compounds that activate the release of intracellular calcium from one type of cell are agonists or partial agonists, while those that inhibit such release may be antagonists. […] The general assay protocols may vary slightly depending on the chosen cell line. In general, during cell culture passage, cell dissociation solution (CDS, Sigma Aldrich) is used to replace trypsin to dissociate cells from surface. Lipopolysaccharide (LPS) and trypsin are purchased from Sigma Aldrich. […] ELISA sets are purchased from BD Pharmingen (San Jose, Calif.) and cytokine array kits are purchased from RayBiotecho (Norcross, Ga.).
Cells are seeded overnight in 96-well black walled, clear bottomed, plate at approximately 2×10^4 to 4×10^5 cells per well. […] The cells are then washed twice with HBSS and transferred to a Polarstar spectrotluorimeter (BMG, Durham N.C.).
The cells are prepared as outlined above then treated with the “putative” antagonist 30 min prior to the addition of either trypsin or a synthetic agonist at a concentration equal to the agonists ED80.
The cells were then treated with 1 μM of the PAR2 agonist 2f-LIGRLO-NH2 (FIG. 2A. n=5) or 100 nM Trypsin (FIG. 2B, n=1). Each data point represents mean±SEM. Net changes in fluorescence were calculated as a percentage relative to the maximum response given 1 μM 2f-LIGRLO-NH2 or 100 nM Trypsin. Changes in fluorescence (% response) were plotted against logarithmic compound concentrations. The half maximal inhibitory concentration (IC50) values were derived from the dose response curve using a nonlinear regression curve in Graphpad Prism v5.

| IC50 | SMILES |
| --- | --- |
| 1.6 ± 0.4 µM | CCC(C)Oc1ccccc1CNC(=O)[C@@H](NC(=O)[C@H](CC1CCCCC1)NC(=O)c1ccno1)[C@@H](C)CC (stereo partly shown) [Compound 25] |

Same assay, conditions: HT29 cells; 30 min pre-incubation, then PAR2 agonist (1 μM 2f-LIGRLO-NH2); read-out: IC50, inhibition of Ca2+ release in HT29 cells

| SMILES | IC50 |
| --- | --- |
| CCCCOc1ccccc1CNC(=O)[C@@H](NC(=O)[C@H](CC1CCCCC1)NC(=O)c1ccno1)[C@@H](C)CC [Compound 23] | 40 µM |
| CC[C@H](C)[C@H](NC(=O)[C@H](CC1CCCCC1)NC(=O)c1ccno1)C(=O)N1CCC(c2ccc(OC)cc2)CC1 [Compound 31] | 10 µM |
| CC[C@H](C)[C@H](NC(=O)[C@H](CC1CCCCC1)NC(=O)c1ccno1)C(=O)N1CCCC(Nc2cccc(C(F)(F)F)c2)C1 (stereo partly shown) [Compound 38] | 6 µM |
| CC[C@H](C)[C@H](NC(=O)[C@H](CC1CCCCC1)NC(=O)c1ccno1)C(=O)NCc1ccccc1C(F)(F)F [Compound 28] | 1 to 2 µM |
| CC[C@H](C)[C@H](NC(=O)[C@H](CC1CCCCC1)NC(=O)c1ccno1)C(=O)N1CCC(Cc2ccccc2)CC1 [Compound 35] | 8 µM |
| CC[C@H](C)[C@H](NC(=O)[C@H](CC1CCCCC1)NC(=O)c1ccno1)C(=O)N1CCC(c2ccccc2C(F)(F)F)CC1 [Compound 33] | 10 µM |
| CCOc1ccccc1CNC(=O)[C@@H](NC(=O)[C@H](CC1CCCCC1)NC(=O)c1ccno1)[C@@H](C)CC [Compound 21] | 0.7 ± 0.1 µM |
| CC[C@H](C)[C@H](NC(=O)[C@H](CC1CCCCC1)NC(=O)c1ccno1)C(=O)N1CCC2(CCc3ccccc3O2)CC1 [Compound 37, 5-isoxazoyl-Cha-Ile-spiro[chroman-2,4′-piperidine]] | 5 to 10 µM |
| CC[C@H](C)[C@H](NC(=O)[C@H](CC1CCOCC1)NC(=O)c1ccno1)C(=O)N1CCC2(C=Cc3ccccc32)CC1 [Compound 43] | 60 µM |
| CC[C@H](C)[C@H](NC(=O)[C@H](CC1CCCCC1)NC(=O)c1ccno1)C(=O)NCc1cccc2c1OCO2 [Compound 26, 5-isoxazoyl-Cha-Ile-aminomethyl-(1,3-dioxalane)phenyl] | 0.4 ± 0.1 µM |
| CC[C@H](C)[C@H](NC(=O)[C@H](CC1CCCCC1)NC(=O)c1ccno1)C(=O)NCc1ccc(Cl)c(Cl)c1 [Compound 27, 5-isoxazoyl-Cha-Ile-aminomethyl-(3,4-dichloro)phenyl] | 1.4 ± 0.8 µM |

Results, then the molecule that gave them:

| IC50 | SMILES |
| --- | --- |
| 25 µM | CC[C@H](C)[C@H](NC(=O)[C@H](CC1CCCCC1)NC(=O)c1ccno1)C(=O)N1CCC(c2ccccc2-c2ccccc2)CC1 [Compound 34] |
| 0.5 ± 0.1 µM | CC[C@H](C)[C@H](NC(=O)[C@H](CC1CCCCC1)NC(=O)c1ccno1)C(=O)NCc1cccc(OC)c1 [Compound 19] |
| 6.4 µM | CC[C@H](C)[C@H](NC(=O)[C@H](CC1CCCCC1)NC(=O)c1ccno1)C(=O)N(C)Cc1ccccc1OC [Compound 39, 5-isoxazoyl-Cha-Ile-aminodimethyl-(2-methoxy)phenyl] |
| 2 µM | CCCOc1ccccc1CNC(=O)[C@@H](NC(=O)[C@H](CC1CCCCC1)NC(=O)c1ccno1)[C@@H](C)CC [Compound 22] |
| 1.3 ± 0.1 µM | CC[C@H](C)[C@H](NC(=O)[C@H](CC1CCCCC1)NC(=O)c1ccno1)C(=O)NCc1ccccc1OC(C)C [Compound 24, 5-isoxazoyl-Cha-Ile-aminomethyl-(2-isopropoxy)phenyl] |
| 0.5 ± 0.1 µM | CC[C@H](C)[C@H](NC(=O)[C@H](CC1CCCCC1)NC(=O)c1ccno1)C(=O)NCc1ccccc1C [Compound 20] |
| 0.7 µM | CC[C@H](C)[C@H](NC(=O)[C@H](CC1CCCCC1)NC(=O)c1ccno1)C(=O)NCc1cccc(C(=O)N2CCC(NCCN)(C(=O)NCc3ccccc3)CC2)c1 [Compound 29] |
| 8.6 ± 2.6 µM | CC[C@H](C)[C@H](NC(=O)[C@H](CC1CCCCC1)NC(=O)c1ccno1)C(=O)N1CCCC[C@H]1C(=O)NC(C)(C)C [Compound 36] |
| 5 to 10 µM | CC[C@H](C)[C@H](NC(=O)[C@H](CC1CCCCC1)NC(=O)c1ccno1)C(=O)N1CCC(c2cc(OC)ccc2OC)CC1 [Compound 32] |
| 1.3 µM | COc1ccccc1CNC(=O)[C@@H](NC(=O)[C@H](CC1CCCCC1)NC(=O)c1ccno1)[C@@H](C)OC [Compound 40, 5-isoxazoyl-Cha-Thr(Me)-aminomethyl-(2-methoxy)phenyl] |
